According to patent US8273575B2, “Methods for the diagnosis, risk assessment, and monitoring of autism spectrum disorders” (Phenomenome Discoveries Inc., priority 2007, dated 2012):

How the values were obtained:
[1] = Plasma carnitine and O-acetylcarnitine levels in longitudinal samples of autistic subjects versus controls (FIG. 4); format: in vivo, human; conditions: all ASD subjects taking acetyl-carnitine
Text: FIG. 4 is a graph illustrating levels of carnitine and O-acetylcarnitine in longitudinal samples collected over the course of one year from individual subjects diagnosed with autism versus controls. Values are control normalized and expressed as mean+/−SEM, n=3 for each child, n=30 for controls, *, p<0.05 vs. control;
(§1) Sample Collection. Three plasma samples were collected from 15 clinically diagnosed ASD subjects and 12 non-ASD controls over a 12 month period (six month interval between samplings). Four subjects were treated with carnitine (A09, A11, A13, A15). Table 1 outlines the clinical characteristics of the subjects studied. Social cognition scores were determined using methods known in the art.
(§2) Acetyl-carnitine is not approved nor has it been proven to be effective in ASD. To illustrate the utility of a method of monitoring ASD therapy as disclosed herein, the diagnostic ASD biomarkers described above were quantified in subjects taking acetyl-carnitine supplements. FIG. 4 illustrates the carnitine and acetyl carnitine levels in all of the subjects. […] All of the subjects taking acetyl-carnitine had elevated levels of both carnitine and acetyl-carnitine.

autism biomarkers = assay: Monitoring the biochemical efficacy of carnitine supplementation on autism biomarkers in plasma (FIG. 5); format: in vivo, human
Text: FIG. 5 is a graph illustrating levels of key DHA and AA containing PlsEtn and VLCFA containing PtdEtn in longitudinal samples collected over the course of one year from autistic subjects taking carnitine supplements [n=12 (4×3)] vs. subjects not taking carnitine supplements [n=33 (11×3)] and vs. controls [n=30 (10×3)]. Values control-normalized and expressed as mean+/−SEM of the ratio to PtdEtn 16:0/18:0, *, p<0.05 vs. control, #, p<0.05 vs. autism, no carnitine; and
as §1
LC-MS/MS flow injection analyses. Analyses were performed using a linear ion trap mass spectrometer (4000 Q TRAP, Applied Biosystems) coupled with an Agilent 1100 LC system. Sample was prepared by adding 15 μL of internal standard (5 μg/mL of (24-^13C)-Cholic Acid (Cambridge Isotope Laboratories, Andover, Mass.) in methanol) to 120 μL ethyl acetate fraction of each sample. 100 μl of sample was injected by flow injection analysis (FIA), and monitored under negative APCI mode. The method was based on multiple reaction monitoring (MRM) of one parent/fragment transition for each metabolite and (24-^13C)-Cholic Acid. Each transition was scanned for 70 ms. 10% EtOAc in MeOH at a flow rate of 360 μl/min was used as the mobile phase. The source parameters were set as follows: CUR: 10.0, CAD: 8, NC: −4.0, TEM: 400, GS1: 30, GS2: 50, interface heater on. The compound parameters were set as follows: DP: −120.0, EP: −10, NC: −4.0, CE: −40, CXP: −15. A standard curve was generated for all analytes to verify instrument linearity by serial dilution of a healthy normal serum extract with constant concentration of (24-^13C)-Cholic Acid. All samples were analyzed in a randomized blinded manner and were bracketed by known serum standard dilutions. All standard curves had r^2 values >0.98.
as §2
Comparison of the plasma levels of the eight most descriptive metabolites between the carnitine+/−autistic subjects and controls, determined that the effect of carnitine on the autism biomarkers was striking (FIG. 5). […] However, the rate of elongation and desaturation of mono- and di-unsaturated fatty acid precursors appear to be unaffected and a compensatory elevation in AA appears to occur.

[2] = autistic subjects taking carnitine vs not taking and vs controls

With `C[N+](C)(C)CC(O)CC(=O)[O-]` (centres unmarked) [carnitine] as the compound, how does the “Plasma levels in subjects taking acetyl-carnitine” value [1] read?
Its value is “elevated”.

What about the “Levels of AA-PtdEtn (20:4) in subjects taking carnitine” value (autism biomarkers) of the same compound?
Its value is “significantly elevated”.

And the “Effect on DHA-PlsEtn” value (autism biomarkers; [2])?
Its value is “Complete normalization”.

And the “Effect on DHA-PtdEtn” value (autism biomarkers; [2])?
Its value is “Complete normalization”.

And the “Effect on saturated VLCFA (28:0)” value (autism biomarkers; [2])?
The value was “Complete normalization”.

And the “Effect on the DHA precursor (24:6)” value (autism biomarkers; [2])?
Its value is “Complete normalization”.

What about the “Effect on 26:3 PdtEtn” value (autism biomarkers; carnitine supplementation) of the same compound?
Its value is “no significant effect”.

What about the “Effect on 28:1 PdtEtn” value (autism biomarkers; carnitine supplementation) of the same compound?
The value was “no significant effect”.
